Data taken from PMC5379069, “A Pseudomonas T6SS effector recruits PQS-containing outer membrane vesicles for iron acquisition” (Nature Communications, 2017).

Assays:
TseF (PA2374) [1] = target: T1, TseF (PA2374) (Pseudomonas aeruginosa, UniProt Q9I1A5); experiment: ITC; also fat western blot; format: binding
TseF (PA2374) [2] = target: T1, TseF (PA2374); experiment: ITC; also immobilized-PQS pull-down and fat western blot; Kd […] with Fe3+; format: binding

T1 sequence (Q9I1A5 entry or part of it): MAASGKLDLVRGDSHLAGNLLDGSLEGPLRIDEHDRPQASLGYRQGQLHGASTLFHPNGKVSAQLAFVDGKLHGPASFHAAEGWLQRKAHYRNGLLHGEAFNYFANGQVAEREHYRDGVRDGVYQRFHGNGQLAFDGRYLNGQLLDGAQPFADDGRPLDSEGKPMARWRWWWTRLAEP

Compound	Kd (TseF (PA2374) [1]) [µM]	Kd (TseF (PA2374) [2]) [µM]
CCCCCCCc1cc(O)c2ccccc2n1 [HHQ, 4-hydroxy-2-heptylquinoline]	25.7	
CCCCCCCc1[nH]c2ccccc2c(=O)c1O [PQS, 2-heptyl-3-hydroxy-4-quinolone]		0.33
